{"source": "patent US20090305994A1", "about": "“Compounds Modulating Vegf Receptor and Uses Thereof” (priority 2005, published 2009)", "key": {"KDR": {"molecular_target": "T1, KDR (Bos taurus, UniProt A0AAA9SPC9)", "T1 construct": "we immunoprecipitated total KDR and Flt-1 from BAEC whole extracts; endogenous in cells; host or cells: BAEC (bovine aorta endothelial cells, SV40-immortalized)", "T1 sequence (A0AAA9SPC9 20-1356)": "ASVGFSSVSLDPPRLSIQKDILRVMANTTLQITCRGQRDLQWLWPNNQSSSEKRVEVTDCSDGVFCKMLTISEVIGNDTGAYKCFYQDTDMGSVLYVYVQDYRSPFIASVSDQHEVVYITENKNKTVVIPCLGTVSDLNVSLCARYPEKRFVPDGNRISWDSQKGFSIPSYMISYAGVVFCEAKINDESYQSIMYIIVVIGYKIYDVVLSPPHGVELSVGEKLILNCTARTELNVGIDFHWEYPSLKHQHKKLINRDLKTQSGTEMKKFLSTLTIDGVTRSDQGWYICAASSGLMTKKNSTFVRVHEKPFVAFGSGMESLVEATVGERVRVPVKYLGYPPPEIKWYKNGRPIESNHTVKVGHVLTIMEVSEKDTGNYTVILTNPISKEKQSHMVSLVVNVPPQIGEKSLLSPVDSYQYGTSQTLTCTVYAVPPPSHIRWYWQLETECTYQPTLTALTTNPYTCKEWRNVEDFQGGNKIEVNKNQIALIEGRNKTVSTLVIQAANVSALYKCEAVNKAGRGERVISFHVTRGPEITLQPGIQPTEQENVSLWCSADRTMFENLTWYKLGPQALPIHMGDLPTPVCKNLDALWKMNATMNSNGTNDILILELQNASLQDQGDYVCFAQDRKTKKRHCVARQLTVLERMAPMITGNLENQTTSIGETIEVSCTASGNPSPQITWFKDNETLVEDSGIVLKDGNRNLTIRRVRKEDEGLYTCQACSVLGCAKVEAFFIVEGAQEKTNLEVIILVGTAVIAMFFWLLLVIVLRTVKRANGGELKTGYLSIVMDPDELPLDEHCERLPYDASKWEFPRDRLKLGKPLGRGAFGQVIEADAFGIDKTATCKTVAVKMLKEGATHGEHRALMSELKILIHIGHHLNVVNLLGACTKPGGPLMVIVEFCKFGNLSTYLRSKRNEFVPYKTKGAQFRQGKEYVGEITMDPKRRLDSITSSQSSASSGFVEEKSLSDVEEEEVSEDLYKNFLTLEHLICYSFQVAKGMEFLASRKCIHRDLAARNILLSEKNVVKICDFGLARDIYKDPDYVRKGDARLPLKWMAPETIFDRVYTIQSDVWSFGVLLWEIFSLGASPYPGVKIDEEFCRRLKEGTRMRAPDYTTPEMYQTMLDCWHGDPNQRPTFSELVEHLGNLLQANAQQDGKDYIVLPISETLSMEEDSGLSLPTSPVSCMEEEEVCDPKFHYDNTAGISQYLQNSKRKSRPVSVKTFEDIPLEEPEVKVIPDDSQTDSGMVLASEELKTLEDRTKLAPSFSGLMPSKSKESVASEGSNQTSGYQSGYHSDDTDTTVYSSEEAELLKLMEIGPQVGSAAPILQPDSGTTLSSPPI", "assay": "KDR activation (immunoprecipitation, phospho-tyrosine western blot) in BAEC", "assay_type": "cell-based, bovine", "conditions": "15 minutes of exposure", "protocol": "(§1) VEGF receptors binding and activation. a) VEGF competitive binding on BAEC. 1 μg of membrane protein was plated with QK and [^125I]-VEGF (500000 cpm, 10^−10 M). b) KDR activation. After stimulation total KDR was immunoprecipitated from a whole-cell protein extracts and phospho-tyrosine was visualized by a specific antibody, anti-rabbit HRP-conjugated secondary antibody and standard chemiluminescence. c) Flt-1 activation. After stimulation total Flt-1 was immunoprecipitated from a whole-cell protein extracts and phospho-tyrosine was visualized by specific antibody, anti-rabbit HRP-conjugated secondary antibody and standard chemiluminescence.\n(§2) Western blot. Cells were plated on six-well dishes and serum starved overnight. On the next day, cells were treated with different amount of peptide in absence or in presence of VEGF165 for 15 minutes at 37° C. and then dissolved in RIPA-SDS buffer (50 mM Tris-HCl (pH 7.5), 150 mM NaCl, 1% NP-40, 0.25% deoxycholate, 9.4 mg/50 ml sodium orthovanadate, […]). In some experiments, total KDR and Flt-1 were immunoprecipitated from an equal amount of whole-cell protein extracts using protein A/G agarose beads conjugated with antibodies raised against total KDR or Flt-1 (R&D). Proteins from whole-cell extracts or immunocomplexes were resolved by PAGE and transferred to nitrocellulose. […]"}, "Flt-1": {"molecular_target": "T2, Flt-1 (Bos taurus, UniProt F1MDD9)", "T2 construct": "we immunoprecipitated total KDR and Flt-1 from BAEC whole extracts; endogenous in cells; host or cells: BAEC (bovine aorta endothelial cells, SV40-immortalized)", "T2 sequence (F1MDD9 1-1251)": "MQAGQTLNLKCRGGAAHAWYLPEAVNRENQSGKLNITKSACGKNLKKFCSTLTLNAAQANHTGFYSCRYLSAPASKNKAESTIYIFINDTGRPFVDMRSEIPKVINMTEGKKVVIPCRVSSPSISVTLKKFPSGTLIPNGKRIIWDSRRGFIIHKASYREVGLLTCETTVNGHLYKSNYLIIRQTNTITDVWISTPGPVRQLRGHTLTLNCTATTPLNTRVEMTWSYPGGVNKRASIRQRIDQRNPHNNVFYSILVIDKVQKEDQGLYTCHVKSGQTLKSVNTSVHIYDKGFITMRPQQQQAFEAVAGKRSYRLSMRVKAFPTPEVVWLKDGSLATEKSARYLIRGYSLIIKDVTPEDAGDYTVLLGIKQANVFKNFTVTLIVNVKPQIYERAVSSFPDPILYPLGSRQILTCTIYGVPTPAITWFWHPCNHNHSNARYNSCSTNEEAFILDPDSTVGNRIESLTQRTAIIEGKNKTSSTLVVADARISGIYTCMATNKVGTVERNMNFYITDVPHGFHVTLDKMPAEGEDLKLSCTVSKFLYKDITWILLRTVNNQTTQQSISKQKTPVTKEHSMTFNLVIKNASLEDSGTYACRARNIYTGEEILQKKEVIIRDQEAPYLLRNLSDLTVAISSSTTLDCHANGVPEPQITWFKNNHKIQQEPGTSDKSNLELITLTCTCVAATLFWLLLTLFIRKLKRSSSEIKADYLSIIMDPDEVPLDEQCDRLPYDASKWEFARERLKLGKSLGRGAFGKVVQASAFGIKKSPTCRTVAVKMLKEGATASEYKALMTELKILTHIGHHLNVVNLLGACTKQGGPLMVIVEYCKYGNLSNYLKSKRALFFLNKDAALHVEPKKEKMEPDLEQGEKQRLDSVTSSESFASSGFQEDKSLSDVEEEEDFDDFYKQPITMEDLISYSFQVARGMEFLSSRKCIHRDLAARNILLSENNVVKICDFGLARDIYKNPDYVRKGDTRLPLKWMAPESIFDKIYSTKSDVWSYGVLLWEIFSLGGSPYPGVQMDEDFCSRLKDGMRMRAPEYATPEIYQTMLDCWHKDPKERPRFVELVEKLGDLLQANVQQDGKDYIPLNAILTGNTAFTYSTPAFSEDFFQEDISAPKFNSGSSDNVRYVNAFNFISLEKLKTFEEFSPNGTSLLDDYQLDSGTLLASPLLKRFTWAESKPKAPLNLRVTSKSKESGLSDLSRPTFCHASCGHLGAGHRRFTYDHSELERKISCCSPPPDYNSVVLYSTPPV", "assay": "Flt-1 activation (immunoprecipitation, phospho-tyrosine western blot) in BAEC", "assay_type": "cell-based, bovine", "conditions": "15 minutes of exposure", "protocol": "as §1, §2"}}}
{"sequence": "KLTWQELYQLKYKGI [QK]", "values": [{"measurement": "phospho-KDR levels", "setting": "KDR", "result": "reduced phospho-KDR below the levels in unstimulated cells"}, {"measurement": "Flt-1 phosphorylation", "setting": "Flt-1", "result": "increased the levels of phosphorylation of Flt-1"}]}
